US20080318869A1, “Method to Promote Wound Healing” (IMMUNEREGEN BIOSCIENCES, INC., priority 2004, published 2008)

System: tail wounds of irradiated mice
Test: Healing of tail bite wounds in irradiated mice
Assay type: in vivo
Details: male mice with tail bite wounds; 7, 8, or 9 Gy 60 Cobalt gamma radiation single acute dose; direct muscle injection 0.5 ml bolus at 2 micromolar; 7 weeks post-radiation exposure; saline controls had unhealed tail wounds
Protocol: The male mice fought while confined with four mice/bin. They sustained extensive tail wounds from biting. We then exposed the mice to either 7, 8, or 9 Gy 60 Cobalt gamma radiation in a single acute dose. [Sar^9,Met(02)^11]-substance P was administered by direct muscle injection in a 0.5 ml bolus at 2 micromolar concentration. Control animals received injections of normal saline.

[Sar^9,Met(O2)^11]-substance P
unhealed tail wounds: did not have any unhealed tail wounds
